Calls of active or inactive are those of the source. The rule behind the calls is not given here. A value given as a limit tells only on which side of the number the result lay.

The target of test [1] is High affinity cGMP-specific 3',5'-cyclic phosphodiesterase 9A (Mus musculus, UniProt O70628). Nature of the test: Cellular PDE9A assay. It counts as functional.
In test [2] the target is Tyrosine-protein kinase ABL1 (Homo sapiens) (UniProt P00519). Kind of test: ABL1 SGC Tm panel (DSF). To be noted: for ΔTm: Compound concentration 10.0 uM.
Chain of Tyrosine-protein kinase ABL1 (Homo sapiens) (P00519 whole entry): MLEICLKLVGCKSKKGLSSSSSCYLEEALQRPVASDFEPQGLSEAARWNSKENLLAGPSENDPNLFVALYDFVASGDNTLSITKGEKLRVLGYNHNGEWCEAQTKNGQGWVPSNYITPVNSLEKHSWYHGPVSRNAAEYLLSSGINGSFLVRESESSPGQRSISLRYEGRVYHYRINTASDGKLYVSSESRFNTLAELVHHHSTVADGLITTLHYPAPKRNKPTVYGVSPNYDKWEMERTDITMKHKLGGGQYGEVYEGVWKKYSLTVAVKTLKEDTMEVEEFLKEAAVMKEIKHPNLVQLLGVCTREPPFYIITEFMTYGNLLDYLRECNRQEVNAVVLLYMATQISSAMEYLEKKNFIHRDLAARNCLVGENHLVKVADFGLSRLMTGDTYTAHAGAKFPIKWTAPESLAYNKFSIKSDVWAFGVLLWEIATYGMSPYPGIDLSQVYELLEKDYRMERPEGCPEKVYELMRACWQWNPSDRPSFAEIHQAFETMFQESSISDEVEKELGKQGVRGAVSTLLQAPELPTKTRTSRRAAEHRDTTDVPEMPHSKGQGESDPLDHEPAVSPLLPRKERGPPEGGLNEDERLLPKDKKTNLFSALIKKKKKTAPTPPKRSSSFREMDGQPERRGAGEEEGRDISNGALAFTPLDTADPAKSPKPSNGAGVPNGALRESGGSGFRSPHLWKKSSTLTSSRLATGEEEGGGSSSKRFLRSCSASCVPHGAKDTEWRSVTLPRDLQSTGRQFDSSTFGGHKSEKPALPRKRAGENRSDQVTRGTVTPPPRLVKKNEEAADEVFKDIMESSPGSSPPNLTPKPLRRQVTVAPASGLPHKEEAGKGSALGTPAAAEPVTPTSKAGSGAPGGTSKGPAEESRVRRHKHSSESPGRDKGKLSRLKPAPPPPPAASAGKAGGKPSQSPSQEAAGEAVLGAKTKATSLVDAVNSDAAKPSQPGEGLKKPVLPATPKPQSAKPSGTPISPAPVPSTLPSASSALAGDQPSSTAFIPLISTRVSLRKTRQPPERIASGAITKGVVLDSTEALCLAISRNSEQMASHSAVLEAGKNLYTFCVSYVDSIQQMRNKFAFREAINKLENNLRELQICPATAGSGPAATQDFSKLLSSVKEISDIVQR
Test [3] addresses T1, Cytoplasmic tyrosine-protein kinase BMX (Homo sapiens) (UniProt P51813).
T1 sequence (whole entry): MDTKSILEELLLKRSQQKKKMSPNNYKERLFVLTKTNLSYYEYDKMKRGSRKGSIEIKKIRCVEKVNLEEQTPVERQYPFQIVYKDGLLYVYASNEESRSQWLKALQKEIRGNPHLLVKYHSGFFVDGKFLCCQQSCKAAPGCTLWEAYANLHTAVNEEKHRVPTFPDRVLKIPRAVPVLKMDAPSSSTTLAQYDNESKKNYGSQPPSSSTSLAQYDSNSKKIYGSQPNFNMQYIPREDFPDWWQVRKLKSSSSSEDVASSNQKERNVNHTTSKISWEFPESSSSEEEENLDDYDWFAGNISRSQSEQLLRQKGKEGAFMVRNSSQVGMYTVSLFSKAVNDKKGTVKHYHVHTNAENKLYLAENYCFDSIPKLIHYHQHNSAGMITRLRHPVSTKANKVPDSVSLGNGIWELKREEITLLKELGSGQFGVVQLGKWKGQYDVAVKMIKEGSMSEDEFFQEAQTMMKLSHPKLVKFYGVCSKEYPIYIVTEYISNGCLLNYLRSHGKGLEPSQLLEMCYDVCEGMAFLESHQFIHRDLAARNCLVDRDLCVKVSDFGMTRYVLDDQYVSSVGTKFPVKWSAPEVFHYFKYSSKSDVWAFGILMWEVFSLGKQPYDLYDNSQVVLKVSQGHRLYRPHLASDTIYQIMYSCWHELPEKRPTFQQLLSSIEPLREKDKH
Kind of test: BMX SGC Tm panel (DSF). To be noted: for ΔTm: Compound concentration 10.0 uM.

Test [4] addresses Serine/threonine-protein kinase B-raf (Homo sapiens) (UniProt P15056). Kind of test: BRAF SGC Tm panel (DSF). To be noted: for ΔTm: Compound concentration 10.0 uM.
Test [5] addresses Casein kinase II subunit alpha (Homo sapiens) (UniProt P68400). Kind of test: CSNK2A1 SGC Tm panel (DSF). Conditions: for ΔTm: Compound concentration 10.0 uM.
For test [6], the target named is T2, Mitogen-activated protein kinase 13 (Homo sapiens) (UniProt O15264).
T2 sequence (whole entry): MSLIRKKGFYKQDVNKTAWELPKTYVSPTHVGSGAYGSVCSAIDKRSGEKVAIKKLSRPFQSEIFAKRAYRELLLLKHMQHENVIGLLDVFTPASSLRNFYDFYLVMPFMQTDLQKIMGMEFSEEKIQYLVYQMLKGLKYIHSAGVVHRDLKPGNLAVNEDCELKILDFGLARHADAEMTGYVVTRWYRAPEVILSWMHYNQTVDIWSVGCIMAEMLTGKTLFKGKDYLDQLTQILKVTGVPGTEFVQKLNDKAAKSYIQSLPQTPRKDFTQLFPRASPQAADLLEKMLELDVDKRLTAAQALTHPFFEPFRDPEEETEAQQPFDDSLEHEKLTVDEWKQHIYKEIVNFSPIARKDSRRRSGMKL
Kind of test: MAPK13 SGC Tm panel (DSF). To be noted: for ΔTm: Compound concentration 10.0 uM.

The target of test [7] is Serine/threonine-protein kinase Nek7 (Homo sapiens) (UniProt Q8TDX7). Kind of test: NEK7 SGC Tm panel (DSF). To be noted: for ΔTm: Compound concentration 10.0 uM.
Chain of Serine/threonine-protein kinase Nek7 (Homo sapiens) (Q8TDX7 whole entry, looked up): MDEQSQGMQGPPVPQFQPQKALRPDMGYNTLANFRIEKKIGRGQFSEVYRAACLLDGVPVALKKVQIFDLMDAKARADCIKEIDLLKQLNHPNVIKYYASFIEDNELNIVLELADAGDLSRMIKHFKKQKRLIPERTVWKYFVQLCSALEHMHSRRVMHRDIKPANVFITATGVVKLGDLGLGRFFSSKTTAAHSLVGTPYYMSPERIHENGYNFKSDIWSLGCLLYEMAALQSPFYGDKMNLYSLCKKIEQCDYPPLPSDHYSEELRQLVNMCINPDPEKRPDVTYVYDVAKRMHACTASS
The target of test [8] is T3, Serine/threonine-protein kinase tousled-like 1 (Homo sapiens) (UniProt Q9UKI8).
T3 sequence (whole entry): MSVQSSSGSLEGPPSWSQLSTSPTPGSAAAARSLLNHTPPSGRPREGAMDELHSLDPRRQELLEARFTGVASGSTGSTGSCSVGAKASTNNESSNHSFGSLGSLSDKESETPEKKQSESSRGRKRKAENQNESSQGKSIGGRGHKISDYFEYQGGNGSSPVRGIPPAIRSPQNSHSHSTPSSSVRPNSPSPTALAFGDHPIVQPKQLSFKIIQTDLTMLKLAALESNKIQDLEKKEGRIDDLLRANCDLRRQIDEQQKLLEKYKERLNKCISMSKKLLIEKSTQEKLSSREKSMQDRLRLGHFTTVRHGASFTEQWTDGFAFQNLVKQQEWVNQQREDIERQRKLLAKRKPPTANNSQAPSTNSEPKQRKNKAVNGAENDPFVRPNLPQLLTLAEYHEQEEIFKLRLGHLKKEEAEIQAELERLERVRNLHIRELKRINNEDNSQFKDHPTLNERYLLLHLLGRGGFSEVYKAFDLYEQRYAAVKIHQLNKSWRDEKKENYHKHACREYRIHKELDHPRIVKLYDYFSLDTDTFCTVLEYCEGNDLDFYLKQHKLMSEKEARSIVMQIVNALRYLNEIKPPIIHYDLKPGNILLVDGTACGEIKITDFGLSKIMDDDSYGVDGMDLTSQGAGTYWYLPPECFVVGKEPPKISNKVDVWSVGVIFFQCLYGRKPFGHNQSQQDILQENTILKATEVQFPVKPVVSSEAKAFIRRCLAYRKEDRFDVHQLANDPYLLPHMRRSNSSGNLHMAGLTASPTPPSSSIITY
Nature of the test: TLK1 SGC Tm panel (DSF). Conditions: for ΔTm: Compound concentration 10.0 uM.

The target in test [9] is T4, D(4) dopamine receptor (Homo sapiens) (UniProt P21917).
T4 sequence (whole entry): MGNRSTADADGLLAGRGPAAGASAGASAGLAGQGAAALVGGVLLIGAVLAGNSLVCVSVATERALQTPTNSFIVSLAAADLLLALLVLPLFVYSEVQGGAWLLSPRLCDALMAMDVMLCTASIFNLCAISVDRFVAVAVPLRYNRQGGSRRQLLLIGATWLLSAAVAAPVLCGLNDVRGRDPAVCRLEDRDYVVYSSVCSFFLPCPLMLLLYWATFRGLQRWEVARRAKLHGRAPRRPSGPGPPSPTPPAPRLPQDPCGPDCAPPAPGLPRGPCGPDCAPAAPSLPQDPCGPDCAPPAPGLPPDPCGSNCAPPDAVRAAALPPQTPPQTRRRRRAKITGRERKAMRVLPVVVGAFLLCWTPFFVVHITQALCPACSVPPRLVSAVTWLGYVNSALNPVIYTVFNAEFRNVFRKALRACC
To be noted: Compound concentration 10.0 uM.

In test [10] the target is Sigma non-opioid intracellular receptor 1 (Homo sapiens) (UniProt Q99720). To be noted: Compound concentration 10.0 uM.
Chain of Sigma non-opioid intracellular receptor 1 (Homo sapiens) (Q99720 whole entry): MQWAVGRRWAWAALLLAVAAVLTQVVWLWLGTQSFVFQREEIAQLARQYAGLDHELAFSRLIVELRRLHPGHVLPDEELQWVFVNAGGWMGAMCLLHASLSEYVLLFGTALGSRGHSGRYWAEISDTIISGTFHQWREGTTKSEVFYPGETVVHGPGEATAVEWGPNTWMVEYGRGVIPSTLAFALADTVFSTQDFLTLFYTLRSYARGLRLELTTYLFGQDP

Chain of Serine/threonine-protein kinase B-raf (Homo sapiens) (P15056 whole entry): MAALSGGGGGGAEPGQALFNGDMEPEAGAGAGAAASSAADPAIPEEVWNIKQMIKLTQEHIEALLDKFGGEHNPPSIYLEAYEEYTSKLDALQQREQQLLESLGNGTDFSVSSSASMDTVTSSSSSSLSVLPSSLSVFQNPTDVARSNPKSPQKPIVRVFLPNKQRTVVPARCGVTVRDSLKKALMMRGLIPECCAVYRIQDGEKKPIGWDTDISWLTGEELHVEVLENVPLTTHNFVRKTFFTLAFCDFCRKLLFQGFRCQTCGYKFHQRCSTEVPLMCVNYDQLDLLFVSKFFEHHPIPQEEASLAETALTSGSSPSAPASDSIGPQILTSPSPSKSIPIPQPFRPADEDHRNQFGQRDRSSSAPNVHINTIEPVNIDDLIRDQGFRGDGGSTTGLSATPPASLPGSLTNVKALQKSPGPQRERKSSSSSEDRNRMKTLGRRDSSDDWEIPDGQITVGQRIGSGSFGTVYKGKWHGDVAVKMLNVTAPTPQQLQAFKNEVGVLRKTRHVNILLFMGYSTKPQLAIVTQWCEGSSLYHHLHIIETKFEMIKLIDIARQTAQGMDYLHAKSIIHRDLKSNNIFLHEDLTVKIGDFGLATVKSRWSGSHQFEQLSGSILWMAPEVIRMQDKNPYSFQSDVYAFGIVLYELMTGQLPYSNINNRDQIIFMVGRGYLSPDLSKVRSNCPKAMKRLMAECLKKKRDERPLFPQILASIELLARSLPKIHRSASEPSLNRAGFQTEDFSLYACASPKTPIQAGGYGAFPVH
Chain of Casein kinase II subunit alpha (Homo sapiens) (P68400 whole entry, looked up): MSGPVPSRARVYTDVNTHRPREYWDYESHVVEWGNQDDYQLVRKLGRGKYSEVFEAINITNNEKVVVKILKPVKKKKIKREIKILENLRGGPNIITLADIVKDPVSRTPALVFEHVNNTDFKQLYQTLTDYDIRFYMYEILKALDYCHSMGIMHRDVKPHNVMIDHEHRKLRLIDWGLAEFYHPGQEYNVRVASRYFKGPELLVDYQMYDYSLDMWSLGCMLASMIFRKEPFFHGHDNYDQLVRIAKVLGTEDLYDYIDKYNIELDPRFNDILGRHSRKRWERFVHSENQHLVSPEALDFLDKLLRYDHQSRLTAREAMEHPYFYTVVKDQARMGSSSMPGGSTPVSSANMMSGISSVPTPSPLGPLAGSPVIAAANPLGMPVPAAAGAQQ
Chain of High affinity cGMP-specific 3',5'-cyclic phosphodiesterase 9A (O70628 whole entry): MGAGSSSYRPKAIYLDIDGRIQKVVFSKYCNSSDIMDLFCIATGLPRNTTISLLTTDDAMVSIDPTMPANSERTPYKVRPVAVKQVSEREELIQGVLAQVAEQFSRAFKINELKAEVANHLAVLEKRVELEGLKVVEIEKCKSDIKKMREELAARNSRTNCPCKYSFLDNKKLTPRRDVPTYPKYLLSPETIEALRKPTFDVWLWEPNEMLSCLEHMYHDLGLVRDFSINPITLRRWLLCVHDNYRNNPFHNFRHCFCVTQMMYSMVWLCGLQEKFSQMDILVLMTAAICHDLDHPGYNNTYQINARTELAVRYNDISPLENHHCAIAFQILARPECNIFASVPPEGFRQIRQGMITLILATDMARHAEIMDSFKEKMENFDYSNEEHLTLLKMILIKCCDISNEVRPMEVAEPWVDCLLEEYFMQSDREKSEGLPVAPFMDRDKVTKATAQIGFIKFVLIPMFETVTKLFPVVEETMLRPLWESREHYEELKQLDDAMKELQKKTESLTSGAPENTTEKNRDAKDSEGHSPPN

For orientation: EC50 means the concentration at which the effect is half-maximal. What is called inhibition is the relative decrease from the control value, in per cent. As to `CCC[C@@H]1CNCc2c1[nH]c(=O)c(C#N)c2N1CCC2(CC1)CC2`, the EC50 in test [1] is reported as > 10 µM (not active). For the same molecule, the delta Tm Staurosporine positive control in test [2] was 8.44; in test [3] it was 7.31; in test [4] it was 1.08; in test [5] it was 4.47; in [6], 8.03; in test [7] it was -0.489. Further, in test [8], the delta Tm Staurosporine positive control came out at 9.74. In addition, the ΔTm was 0.0781 in test [2]; -0.292 in test [3]; -0.0823 in test [4]; -0.184 in test [5]; 0.124 in test [6]; -0.956 in [7]. Also, the ΔTm in [8] is -1.18. Further, the figures for the inhibition in test [9] and in [10] were 18.8% and 13.2%, respectively.

Take `CCC[C@H]1CNCc2c1[nH]c(=O)c(C#N)c2N1CCC2(CC1)CC2`: in [1], the EC50 is 0.995 µM (active). The delta Tm Staurosporine positive control in test [2] was 8.44; in test [3], 7.31; in test [4], 1.08; in test [5] it was 4.47; in test [6], 8.03; in [7] it was -0.489. This molecule also gave a delta Tm Staurosporine positive control in [8] of 9.74. Besides, the ΔTm in test [2] is 0.111; in test [3] it was -0.224; in test [4] it was -0.134; in test [5], -0.228; in [6], 0.098; in test [7] it was -0.134. For the same molecule, the ΔTm in [8] is -1.34. Also, the results for the inhibition in [9] and in [10] were 15.9% and 18.1%, respectively.
